Measured values as given in the supplement of paper PMC10307832.

What was measured:
Linsitinib + Palbociclib = compound: C[C@]1(O)C[C@@H](c2nc(-c3ccc4ccc(-c5ccccc5)nc4c3)c3c(N)nccn32)C1 [Linsitinib] + CC(=O)c1c(C)c2cnc(Nc3ccc(N4CCNCC4)cn3)nc2n(C2CCCC2)c1=O [Palbociclib] (partner 0.5 µM); experiment: relative viability (nuclei count vs DMSO), 5 days (fraction); higher = more cells survive
Method in brief: (§1)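 A single step with final 0.05% Triton X-100, 1% formaldehyde and 1 ug/ml Hoechst fixed the cells and stained nuclei 5 days after treatment. Lung cancer cell lines in 1536-well plates had been treated by pin tool the day after seeding with one drug alone or a fixed anchor-drug dose plus five library-drug doses (not always all listed) in √10 steps, and nuclei were counted on 4× images. Relative viability is the ratio of nuclei in treated wells to nuclei in vehicle wells, taken as the median of duplicate plates.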

Linsitinib + Decitabine = compound: C[C@]1(O)C[C@@H](c2nc(-c3ccc4ccc(-c5ccccc5)nc4c3)c3c(N)nccn32)C1 [Linsitinib] + Nc1ncn([C@H]2C[C@H](O)[C@@H](CO)O2)c(=O)n1 [Decitabine] (partner 2 µM); experiment: as above
Method in brief: as §1

PC-3 [JPC-3]
relative viability (Linsitinib + Palbociclib; first compound 0.01 µM): 0.548
relative viability (Linsitinib + Palbociclib; first compound 0.03162 µM): 0.544
relative viability (Linsitinib + Palbociclib; first compound 0.1 µM): 0.558
relative viability (Linsitinib + Palbociclib; first compound 0.3162 µM): 0.471
relative viability (Linsitinib + Palbociclib; first compound 1 µM): 0.493
relative viability (Linsitinib + Decitabine; first compound 0.01 µM): 0.822
relative viability (Linsitinib + Decitabine; first compound 0.03162 µM): 0.902
relative viability (Linsitinib + Decitabine; first compound 0.1 µM): 0.91
relative viability (Linsitinib + Decitabine; first compound 0.3162 µM): 0.77
relative viability (Linsitinib + Decitabine; first compound 1 µM): 0.814

NCI-H1755
relative viability (Linsitinib + Palbociclib; first compound 0.01 µM): 0.475
relative viability (Linsitinib + Palbociclib; first compound 0.03162 µM): 0.48
relative viability (Linsitinib + Palbociclib; first compound 0.1 µM): 0.467
relative viability (Linsitinib + Palbociclib; first compound 0.3162 µM): 0.345
relative viability (Linsitinib + Palbociclib; first compound 1 µM): 0.444
relative viability (Linsitinib + Decitabine; first compound 0.01 µM): 0.719
relative viability (Linsitinib + Decitabine; first compound 0.03162 µM): 0.856
relative viability (Linsitinib + Decitabine; first compound 0.1 µM): 0.719
relative viability (Linsitinib + Decitabine; first compound 0.3162 µM): 0.559
relative viability (Linsitinib + Decitabine; first compound 1 µM): 0.702

RERF-LC-KJ
relative viability (Linsitinib + Palbociclib; first compound 0.01 µM): 0.909
relative viability (Linsitinib + Palbociclib; first compound 0.03162 µM): 0.795
relative viability (Linsitinib + Palbociclib; first compound 0.1 µM): 1.05
relative viability (Linsitinib + Palbociclib; first compound 0.3162 µM): 0.464
relative viability (Linsitinib + Palbociclib; first compound 1 µM): 1.1
relative viability (Linsitinib + Decitabine; first compound 0.01 µM): 0.726
relative viability (Linsitinib + Decitabine; first compound 0.03162 µM): 0.651
relative viability (Linsitinib + Decitabine; first compound 0.1 µM): 0.622
relative viability (Linsitinib + Decitabine; first compound 0.3162 µM): 0.599
relative viability (Linsitinib + Decitabine; first compound 1 µM): 0.665

NCI-H647
relative viability (Linsitinib + Palbociclib; first compound 0.01 µM): 0.377
relative viability (Linsitinib + Palbociclib; first compound 0.03162 µM): 0.459
relative viability (Linsitinib + Palbociclib; first compound 0.1 µM): 0.32
relative viability (Linsitinib + Palbociclib; first compound 0.3162 µM): 0.171
relative viability (Linsitinib + Palbociclib; first compound 1 µM): 0.322
relative viability (Linsitinib + Decitabine; first compound 0.01 µM): 0.39
relative viability (Linsitinib + Decitabine; first compound 0.03162 µM): 0.524
relative viability (Linsitinib + Decitabine; first compound 0.1 µM): 0.395
relative viability (Linsitinib + Decitabine; first compound 0.3162 µM): 0.405
relative viability (Linsitinib + Decitabine; first compound 1 µM): 0.43

BEN
relative viability (Linsitinib + Palbociclib; first compound 0.01 µM): 0.487
relative viability (Linsitinib + Palbociclib; first compound 0.03162 µM): 0.422
relative viability (Linsitinib + Palbociclib; first compound 0.1 µM): 0.45
relative viability (Linsitinib + Palbociclib; first compound 0.3162 µM): 0.361
relative viability (Linsitinib + Palbociclib; first compound 1 µM): 0.468
relative viability (Linsitinib + Decitabine; first compound 0.01 µM): 0.526
relative viability (Linsitinib + Decitabine; first compound 0.03162 µM): 0.945
relative viability (Linsitinib + Decitabine; first compound 0.1 µM): 0.65
relative viability (Linsitinib + Decitabine; first compound 0.3162 µM): 0.442
relative viability (Linsitinib + Decitabine; first compound 1 µM): 0.747

201T
relative viability (Linsitinib + Palbociclib; first compound 0.01 µM): 0.357
relative viability (Linsitinib + Palbociclib; first compound 0.03162 µM): 0.371
relative viability (Linsitinib + Palbociclib; first compound 0.1 µM): 0.374
relative viability (Linsitinib + Palbociclib; first compound 0.3162 µM): 0.364
relative viability (Linsitinib + Palbociclib; first compound 1 µM): 0.374
relative viability (Linsitinib + Decitabine; first compound 0.01 µM): 0.868
relative viability (Linsitinib + Decitabine; first compound 0.03162 µM): 0.881
relative viability (Linsitinib + Decitabine; first compound 0.1 µM): 0.904
relative viability (Linsitinib + Decitabine; first compound 0.3162 µM): 0.832
relative viability (Linsitinib + Decitabine; first compound 1 µM): 0.889

LC-2-ad
relative viability (Linsitinib + Palbociclib; first compound 0.01 µM): 0.412
relative viability (Linsitinib + Palbociclib; first compound 0.03162 µM): 0.392
relative viability (Linsitinib + Palbociclib; first compound 0.1 µM): 0.483
relative viability (Linsitinib + Palbociclib; first compound 0.3162 µM): 0.433
relative viability (Linsitinib + Palbociclib; first compound 1 µM): 0.423
relative viability (Linsitinib + Decitabine; first compound 0.01 µM): 0.776
relative viability (Linsitinib + Decitabine; first compound 0.03162 µM): 0.719
relative viability (Linsitinib + Decitabine; first compound 0.1 µM): 0.864
relative viability (Linsitinib + Decitabine; first compound 0.3162 µM): 0.726
relative viability (Linsitinib + Decitabine; first compound 1 µM): 0.742

NCI-H2342
relative viability (Linsitinib + Palbociclib; first compound 0.01 µM): 0.677
relative viability (Linsitinib + Palbociclib; first compound 0.03162 µM): 0.524
relative viability (Linsitinib + Palbociclib; first compound 0.1 µM): 0.521
relative viability (Linsitinib + Palbociclib; first compound 0.3162 µM): 0.531
relative viability (Linsitinib + Palbociclib; first compound 1 µM): 0.54
relative viability (Linsitinib + Decitabine; first compound 0.01 µM): 0.765
relative viability (Linsitinib + Decitabine; first compound 0.03162 µM): 0.78
relative viability (Linsitinib + Decitabine; first compound 0.1 µM): 0.732
relative viability (Linsitinib + Decitabine; first compound 0.3162 µM): 0.688
relative viability (Linsitinib + Decitabine; first compound 1 µM): 0.75

LCLC-97TM1
relative viability (Linsitinib + Palbociclib; first compound 0.01 µM): 0.223
relative viability (Linsitinib + Palbociclib; first compound 0.03162 µM): 0.205
relative viability (Linsitinib + Palbociclib; first compound 0.1 µM): 0.191
relative viability (Linsitinib + Palbociclib; first compound 0.3162 µM): 0.195
relative viability (Linsitinib + Palbociclib; first compound 1 µM): 0.212
relative viability (Linsitinib + Decitabine; first compound 0.01 µM): 0.251
relative viability (Linsitinib + Decitabine; first compound 0.03162 µM): 0.261
relative viability (Linsitinib + Decitabine; first compound 0.1 µM): 0.24
relative viability (Linsitinib + Decitabine; first compound 0.3162 µM): 0.204
relative viability (Linsitinib + Decitabine; first compound 1 µM): 0.245

NCI-H1915
relative viability (Linsitinib + Palbociclib; first compound 0.01 µM): 0.514
relative viability (Linsitinib + Palbociclib; first compound 0.03162 µM): 0.595
relative viability (Linsitinib + Palbociclib; first compound 0.1 µM): 0.473
relative viability (Linsitinib + Palbociclib; first compound 0.3162 µM): 0.489
relative viability (Linsitinib + Palbociclib; first compound 1 µM): 0.307
relative viability (Linsitinib + Decitabine; first compound 0.01 µM): 0.272
relative viability (Linsitinib + Decitabine; first compound 0.03162 µM): 0.312
relative viability (Linsitinib + Decitabine; first compound 0.1 µM): 0.266
relative viability (Linsitinib + Decitabine; first compound 0.3162 µM): 0.247
relative viability (Linsitinib + Decitabine; first compound 1 µM): 0.263

NCI-H3122
relative viability (Linsitinib + Palbociclib; first compound 0.01 µM): 0.202
relative viability (Linsitinib + Palbociclib; first compound 0.03162 µM): 0.222
relative viability (Linsitinib + Palbociclib; first compound 0.1 µM): 0.17
relative viability (Linsitinib + Palbociclib; first compound 1 µM): 0.216
relative viability (Linsitinib + Decitabine; first compound 0.01 µM): 0.442
relative viability (Linsitinib + Decitabine; first compound 0.03162 µM): 0.388
relative viability (Linsitinib + Decitabine; first compound 0.1 µM): 0.424
relative viability (Linsitinib + Decitabine; first compound 1 µM): 0.462

NCI-H1650
relative viability (Linsitinib + Palbociclib; first compound 0.01 µM): 0.399
relative viability (Linsitinib + Palbociclib; first compound 0.03162 µM): 0.299
relative viability (Linsitinib + Palbociclib; first compound 0.1 µM): 0.305
relative viability (Linsitinib + Palbociclib; first compound 0.3162 µM): 0.246
relative viability (Linsitinib + Palbociclib; first compound 1 µM): 0.253
relative viability (Linsitinib + Decitabine; first compound 0.01 µM): 0.571
relative viability (Linsitinib + Decitabine; first compound 0.03162 µM): 0.449
relative viability (Linsitinib + Decitabine; first compound 0.1 µM): 0.415
relative viability (Linsitinib + Decitabine; first compound 0.3162 µM): 0.325
relative viability (Linsitinib + Decitabine; first compound 1 µM): 0.361

SW 900
relative viability (Linsitinib + Palbociclib; first compound 0.01 µM): 0.506
relative viability (Linsitinib + Palbociclib; first compound 0.03162 µM): 0.544
relative viability (Linsitinib + Palbociclib; first compound 0.1 µM): 0.534
relative viability (Linsitinib + Palbociclib; first compound 0.3162 µM): 0.476
relative viability (Linsitinib + Palbociclib; first compound 1 µM): 0.505
relative viability (Linsitinib + Decitabine; first compound 0.01 µM): 0.474
relative viability (Linsitinib + Decitabine; first compound 0.03162 µM): 0.537
relative viability (Linsitinib + Decitabine; first compound 0.1 µM): 0.466
relative viability (Linsitinib + Decitabine; first compound 0.3162 µM): 0.374
relative viability (Linsitinib + Decitabine; first compound 1 µM): 0.388

NCI-H1993
relative viability (Linsitinib + Palbociclib; first compound 0.01 µM): 0.646
relative viability (Linsitinib + Palbociclib; first compound 0.03162 µM): 0.668
relative viability (Linsitinib + Palbociclib; first compound 0.1 µM): 0.484
relative viability (Linsitinib + Palbociclib; first compound 0.3162 µM): 0.686
relative viability (Linsitinib + Palbociclib; first compound 1 µM): 0.456
relative viability (Linsitinib + Decitabine; first compound 0.01 µM): 0.646
relative viability (Linsitinib + Decitabine; first compound 0.03162 µM): 0.564
relative viability (Linsitinib + Decitabine; first compound 0.1 µM): 0.473
relative viability (Linsitinib + Decitabine; first compound 0.3162 µM): 0.506
relative viability (Linsitinib + Decitabine; first compound 1 µM): 0.499

NCI-H2405
relative viability (Linsitinib + Palbociclib; first compound 0.01 µM): 0.503
relative viability (Linsitinib + Palbociclib; first compound 0.03162 µM): 0.537
relative viability (Linsitinib + Palbociclib; first compound 0.1 µM): 0.521
relative viability (Linsitinib + Palbociclib; first compound 0.3162 µM): 0.47
relative viability (Linsitinib + Palbociclib; first compound 1 µM): 0.473
relative viability (Linsitinib + Decitabine; first compound 0.01 µM): 0.709
relative viability (Linsitinib + Decitabine; first compound 0.03162 µM): 0.813
relative viability (Linsitinib + Decitabine; first compound 0.1 µM): 0.713
relative viability (Linsitinib + Decitabine; first compound 0.3162 µM): 0.686
relative viability (Linsitinib + Decitabine; first compound 1 µM): 0.588

NCI-H661
relative viability (Linsitinib + Palbociclib; first compound 0.01 µM): 0.41
relative viability (Linsitinib + Palbociclib; first compound 0.03162 µM): 0.433
relative viability (Linsitinib + Palbociclib; first compound 0.1 µM): 0.381
relative viability (Linsitinib + Palbociclib; first compound 0.3162 µM): 0.379
relative viability (Linsitinib + Palbociclib; first compound 1 µM): 0.412
relative viability (Linsitinib + Decitabine; first compound 0.01 µM): 0.545
relative viability (Linsitinib + Decitabine; first compound 0.03162 µM): 0.676
relative viability (Linsitinib + Decitabine; first compound 0.1 µM): 0.536
relative viability (Linsitinib + Decitabine; first compound 0.3162 µM): 0.492
relative viability (Linsitinib + Decitabine; first compound 1 µM): 0.535

NCI-H1648
relative viability (Linsitinib + Palbociclib; first compound 0.01 µM): 0.238
relative viability (Linsitinib + Palbociclib; first compound 0.03162 µM): 0.304
relative viability (Linsitinib + Palbociclib; first compound 0.1 µM): 0.252
relative viability (Linsitinib + Palbociclib; first compound 0.3162 µM): 0.279
relative viability (Linsitinib + Palbociclib; first compound 1 µM): 0.212
relative viability (Linsitinib + Decitabine; first compound 0.01 µM): 0.468
relative viability (Linsitinib + Decitabine; first compound 0.03162 µM): 0.445
relative viability (Linsitinib + Decitabine; first compound 0.1 µM): 0.428
relative viability (Linsitinib + Decitabine; first compound 0.3162 µM): 0.377
relative viability (Linsitinib + Decitabine; first compound 1 µM): 0.46
